Assay results as given in patent US9409884B2 (Rigel Pharmaceuticals, Inc., priority 2012, dated 2016).

The compounds below were run against AMPK (assay: AMPK activation, enzyme-linked immunosorbent assay). Conditions: Table 13, compounds of Table 6.
Format: biochemical
How it was run: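 Read-out: ELISA, used to detect compound-driven activation of AMPK.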

EC50 | Structure (SMILES)
1000 to 10000 nM | N#Cc1ccc(CN2CCC(NC(=O)c3cc4cc(C(=O)N5CCN(c6cc(C(F)(F)F)cc(C(F)(F)F)c6)CC5)ccc4o3)CC2)cc1 [Compound 6-117, 5-(4-(3,5-bis(trifluoromethyl)phenyl)piperazine-1-carbonyl)-N-(1-(4-cyanobenzyl)piperidin-4-yl)benzofuran-2-carboxamide]
< 100 nM | N#Cc1ccc(CN2CCC(NC(=O)c3cc4cc(C(=O)N5CCN(c6ccc(Cl)cc6Cl)CC5)ccc4o3)CC2)cc1 [Compound 6-118, N-(1-(4-cyanobenzyl)piperidin-4-yl)-5-(4-(2,4-dichlorophenyl)piperazine-1-carbonyl)benzofuran-2-carboxamide]
< 100 nM | COc1ccc(CN2CCC(NC(=O)c3cc4cc(C(=O)N5CCN(c6ccc(C(F)(F)F)cc6)CC5)ccc4o3)CC2)cc1 [Compound 6-119, N-(1-(4-methoxybenzyl)piperidin-4-yl)-5-(4-(4-(trifluoromethyl)phenyl)piperazine-1-carbonyl) benzofuran-2-carboxamide]
< 100 nM | COc1ccc(CN2CCC(NC(=O)c3cc4cc(C(=O)N5CCN(c6cc(C(F)(F)F)cc(C(F)(F)F)c6)CC5)ccc4o3)CC2)cc1 [Compound 6-120, 5-(4-(3,5-bis(trifluoromethyl)phenyl)piperazine-1-carbonyl)-N-(1-(4-methoxybenzyl)piperidin-4-yl)benzofuran-2-carboxamide]
< 100 nM | COc1ccc(CN2CCC(NC(=O)c3cc4cc(C(=O)N5CCN(c6ccc(Cl)cc6Cl)CC5)ccc4o3)CC2)cc1 [Compound 6-121, 5-(4-(2,4-dichlorophcnyl)piperazine-1-carbonyl)-N-(1-(4-methoxybenzyl)piperidin-4-yl)benzofuran-2-carboxamide]
100 to 1000 nM | N#Cc1ccc(CN2CCC(NC(=O)c3cc4cc(C(=O)N5CCC(S(=O)(=O)c6ccc(F)cc6)CC5)ccc4o3)CC2)cc1 [Compound 6-122, N-(1-(4-cyanobenzyl)piperidin-4-yl)-5-(4-(4-fluorophenylsulfonyl)piperidine-1-carbonyl) benzofuran-2-carboxamide]
< 100 nM | CS(=O)(=O)c1ccc(CN2CCN(C(=O)c3ccc4oc(C(=O)NC5CCN(Cc6ccc(C#N)cc6)CC5)cc4c3)CC2)cc1 [Compound 6-123, N-(1-(4-cyanobenzyl)piperidin-4-yl)-5-(4-(4-(methylsulfonyl)benzyl)piperazine-1-carbonyl) benzofuran-2-carboxamide]
< 100 nM | N#Cc1ccc(CN2CCC(NC(=O)c3cc4cc(C(=O)N5CCC(Oc6ccc(S(=O)(=O)C(F)(F)F)cc6)CC5)ccc4o3)CC2)cc1 [Compound 6-124, N-(1-(4-cyanobenzyl)piperidin-4-yl)-5-(4-(4-(trifluoromethylsulfonyl)phenoxy)piperidine-1-carbonyl)benzofuran-2-carboxamide]
< 100 nM | COc1ccc(-c2cnn(C3CCN(C(=O)c4ccc5oc(C(=O)NC6CCN(Cc7ccc(C#N)cc7)CC6)cc5c4)CC3)c2)cc1 [Compound 6-125, N-(1-(4-cyanobenzyl)piperidin-4-yl)-5-(4-(4-(4-methoxyphenyl)-1H-pyrazol-1-yl)piperidine-1-carbonyl)benzofuran-2-carboxamide]
< 100 nM | Cc1cc2oc(C(=O)NC3CCN(Cc4ccc(C#N)cc4)CC3)cc2cc1NC(=O)C1CCN(c2ccc(C#N)cc2)CC1 [Compound 6-126, N-(2-(1-(4-cyanobenzyl)piperidin-4-ylcarbamoyl)-6-methylbenzofuran-5-yl)-1-(4-cyanophenyl)piperidine-4-carboxamide]
< 100 nM | N#Cc1ccc(CN2CCC(NC(=O)c3cc4cc(C(=O)N5CCN(Cc6ccc(C(F)(F)F)cc6)CC5)ccc4o3)CC2)cc1 [Compound 6-127, N-(1-(4-cyanobenzyl)piperidin-4-yl)-5-(4-(4-(trifluoromethyl)benzyl)piperazine-1-carbonyl) benzofuran-2-carboxamide]
< 100 nM | N#Cc1ccc(CN2CCC(NC(=O)c3cc4cc(C(=O)N5CCN(Cc6ccc(S(=O)(=O)C(F)(F)F)cc6)CC5)ccc4o3)CC2)cc1 [Compound 6-128, N-(1-(4-cyanobenzyl)piperidin-4-yl)-5-(4-(4-(trifluoromethylsulfonyl)benzyl)piperazine-1-carbonyl)benzofuran-2-carboxamide]
< 100 nM | COc1ccc(CN2CCC(NC(=O)c3cc4cc(C(=O)N5CCN(Cc6ccc(C(F)(F)F)cc6)CC5)ccc4o3)CC2)cc1F [Compound 6-129, N-(1-(3-fluoro-4-methoxybenzyl)piperidin-4-yl)-5-(4-(4-(trifluoromethyl)benzyl)piperazine-1-carbonyl) benzofuran-2-carboxamide]
< 100 nM | COc1ccc(CN2CCC(NC(=O)c3cc4cc(C(=O)N5CCN(Cc6ccc(S(C)(=O)=O)c(C)c6)CC5)ccc4o3)CC2)cc1F [Compound 6-130, N-(1-(3-fluoro-4-methoxybenzyl)piperidin-4-yl)-5-(4-(3-methyl-4-(methylsulfonyl)benzyl)piperazine-1-carbonyl) benzofuran-2-carboxamide]
< 100 nM | COc1ccc(CN2CCC(NC(=O)c3cc4cc(C(=O)N5CCN(Cc6ccc(S(=O)(=O)C7CC7)cc6)CC5)ccc4o3)CC2)cc1F [Compound 6-131, 5-(4-(4-(cyclopropylsulfonyl)benzyl)piperazine-1-carbonyl)-N-(1-(3-fluoro-4-methoxybenzyl)piperidin-4-yl)benzofuran-2-carboxamide]
< 100 nM | COc1ccc(CN2CCC(NC(=O)c3cc4cc(C(=O)N5CCN(Cc6ccc(S(C)(=O)=O)c(C(F)(F)F)c6)CC5)ccc4o3)CC2)cc1F [Compound 6-132, N-(1-(3-fluoro-4-methoxybenzyl)piperidin-4-yl)-5-(4-(4-(methylsulfonyl)-3-(trifluoromethyl)benzyl)piperazine-1-carbonyl) benzofuran-2-carboxamide]
< 100 nM | COc1ccc(CN2CCC(NC(=O)c3cc4cc(C(=O)N5CCN(Cc6ccc(S(C)(=O)=O)c(Cl)c6)CC5)ccc4o3)CC2)cc1F [Compound 6-133, 5-(4-(3-chloro-4-(methylsulfonyl)benzyl)piperazine-1-carbonyl)-N-(1-(3-fluoro-4-methoxybenzyl)piperidin-4-yl)benzofuran-2-carboxamide]
< 100 nM | COc1ccc(CN2CCC(NC(=O)c3cc4cc(C(=O)N5CCN(Cc6ccc(S(=O)(=O)C(F)(F)F)cc6)CC5)ccc4o3)CC2)cc1F [Compound 6-134, N-(1-(3-fluoro-4-methoxybenzyl)piperidin-4-yl)-5-(4-(4-(trifluoromethylsulfonyl)benzyl)piperazine-1-carbonyl)benzofuran-2-carboxamide]
< 100 nM | CS(=O)(=O)c1ccc(OC2CCN(C(=O)c3ccc4oc(C(=O)NC5CCN(Cc6ccc(OC(F)(F)F)cc6)CC5)cc4c3)CC2)cc1 [Compound 6-135, 5-(4-(4-(methylsulfonyl)phenoxy)piperidine-1-carbonyl)-N-(1-(4-(trifluoromethoxy)benzyl)piperidin-4-yl)benzofuran-2-carboxamide]
< 100 nM | O=C(NC1CCN(Cc2ccc(OC(F)(F)F)cc2)CC1)c1cc2cc(C(=O)N3CCC(Oc4ccc(S(=O)(=O)C(F)(F)F)cc4)CC3)ccc2o1 [Compound 6-136, N-(1-(4-(trifluoromethoxy)benzyl)piperidin-4-yl)-5-(4-(4-(trifluoromethylsulfonyl)phenoxy)piperidine-1-carbonyl)benzofuran-2-carboxamide]
< 100 nM | COc1ccc(CN2CCC(NC(=O)c3cc4cc(C(=O)N5CCC(Oc6ccc(S(=O)(=O)C(F)(F)F)cc6)CC5)ccc4o3)CC2)cc1F [Compound 6-137, N-(1-(3-fluoro-4-methoxybenzyl)piperidin-4-yl)-5-(4-(4-(trifluoromethylsulfonyl)phenoxy)piperidine-1-carbonyl)benzofuran-2-carboxamide]
< 100 nM | CS(=O)(=O)c1ccc(CN2CCN(C(=O)c3ccc4oc(C(=O)NC5CCN(Cc6ccc(OC(F)(F)F)c(F)c6)CC5)cc4c3)CC2)cc1 [Compound 6-138, N-(1-(3-fluoro-4-(trifluoromethoxy)benzyl)piperidin-4-yl)-5-(4-(4-(methylsulfonyl)benzyl)piperazine-1-carbonyl) benzofuran-2-carboxamide]
< 100 nM | O=C(NC1CCN(Cc2ccc(OC(F)(F)F)c(F)c2)CC1)c1cc2cc(C(=O)N3CCN(c4cccc(C(F)(F)F)c4)CC3)ccc2o1 [Compound 6-139, N-(1-(3-fluoro-4-(trifluoromethoxy)benzyl)piperidin-4-yl)-5-(4-(3-(trifluoromethyl)phenyl)piperazine-1-carbonyl) benzofuran-2-carboxamide]
< 100 nM | O=C(NC1CCN(Cc2ccc(OC(F)(F)F)cc2)CC1)c1cc2cc(C(=O)N3CCN(c4cccc(C(F)(F)F)c4)CC3)ccc2o1 [Compound 6-140, N-(1-(4-(trifluoromethoxy)benzyl)piperidin-4-yl)-5-(4-(3-(trifluoromethyl)phenyl)piperazine-1-carbonyl) benzofuran-2-carboxamide]
< 100 nM | COc1ccc(CN2CCC(NC(=O)c3cc4cc(C(=O)N5CCN(Cc6cccc(S(C)(=O)=O)c6)CC5)ccc4o3)CC2)cc1F [Compound 6-141, N-(1-(3-fluoro-4-methoxybenzyl)piperidin-4-yl)-5-(4-(3-(methylsulfonyl)benzyl)piperazine-1-carbonyl) benzofuran-2-carboxamide]
< 100 nM | COc1ccc(CN2CCC(NC(=O)c3cc4cc(C(=O)N5CCN(Cc6cccc(S(C)(=O)=O)c6)CC5)ccc4n3C)CC2)cc1F [Compound 6-142, N-(1-(3-fluoro-4-methoxybenzyl)piperidin-4-yl)-1-methyl-5-(4-(3-(methylsulfonyl)benzyl)piperazine-1-carbonyl)-1H-indole-2-carboxamide]
< 100 nM | COc1ccc(CN2CCC(NC(=O)c3cc4cc(C(=O)N5CCN(Cc6ccc(Br)c(S(C)(=O)=O)c6)CC5)ccc4o3)CC2)cc1F [Compound 6-143, 5-(4-(4-bromo-3-(methylsulfonyl)benzyl)piperazine-1-carbonyl)-N-(1-(3-fluoro-4-methoxybenzyl)piperidin-4-yl)benzofuran-2-carboxamide]
